Consider one substance from patent US8349309B2, “Polymeric coupling agents and pharmaceutically-active polymers made therefrom” (Interface Biologics Inc., priority 2004, dated 2013).

The test relates to Pseudomonas aeruginosa. Kind of test: Macro-dilution minimum inhibitory concentration (MIC) assay. It counts as cell-based.

Procedure: Minimum inhibitory concentration (MIC) assays were used to evaluate the antimicrobial activity of incubating solutions obtained from drug polymer biodegradation studies against P. aeruginosa. Turbidity of each culture was recorded to evaluate the inhibitory properties of degradation solution of drug polymers.
The same NF polymer incubation solutions assayed via HPLC were also evaluated for antimicrobial activity using a biological assay. A macro-dilution minimum inhibitory concentration (MIC) assay was employed to determine the concentration of antimicrobial (norfloxacin) that would inhibit the growth of a pathogen often associated with device-related infections, Pseudomonas aeruginosa. […] Incubation solutions from both enzyme and buffer control treatment of NF polymer were used in a biological assay matrix that was designed to estimate the concentration of norfloxacin as a function of incubation time and treatment.

Substance “1-ethyl-6-fluoro-1,4-dihydro-4-oxo-7-piperazine-quinoline-3-carboxylic acid [norfloxacin]” gave an MIC of 0.8 mu g/mL.
